Tests used:
TXB2 = assay: Assay of TXB2 in serum after oral administration; type: in vivo; settings: 10 mg/kg orally, male rats, blood taken 1 hour later, incubated at 37° C for 90 minutes, Control 192.5
Method: Experiment 3 (Assay of TXB2)
The test drug was orally administered to male rats, and 1 hour later, a blood sample was taken from ventral aorta via a polyethylene tube while anesthetized with ether. The blood taken was immediately incubated at 37° C for 90 minutes, and TXB2 was extracted from the serum separated, followed by assay using a [^3H]RIA Kit.

[1] = system: lipoperoxide production in rat brain; assay: Inhibitory activities on lipoperoxide production in rat brain (MDA yield, TBA method); type: biochemical; settings: rat cerebrum suspension, 37° C for 30 minutes, lipoperoxide measured as MDA yield; read-out: Experiment 2 IC50 value
Method: Experiment 2 (Inhibitory activities on lipoperoxide production in rat brain)
To male rats weighing about 300 g was intraperitoneally administered 100 mg/kg of sodium pentobar- bital and the rats were exsanguinated to death while anesthetized, after which the cerebrum was extracted. The extracted cerebrum was washed with ice-cooled physiological saline, dried gently, and weighed. Thereto was added 5-fold amount by weight of a 50 mM phosphatesaline buffer (pH 7.4), which was then suspended by an ultradisperser under ice-cooling, followed by centrifugation at 1300 g and at 4 C for 10 minutes. The supernatant was 5-fold diluted with the above buffer, and used as a suspension for measurement.
The suspension to which the test drug had been added at 1/100 volume was incubated at 37° C for 30 minutes, and the amount of the resulting lipoperoxide was measured as an MDA yield. The assay of MDA was conducted by a modified method based on Smith et al., and the absorbance of the TBA reaction product at 532 nm was measured.

[2] = system: platelet rich plasma (PRP) from rabbits; assay: Inhibitory activities on platelet aggregation (arachidonic acid-induced, transmittance); type: cell-based; settings: test drug 10^-6 M, rabbit PRP, aggregation induced by arachidonic acid (0.1 mM); for inhibition at 1 µM: Oryctolagus cuniculus, Platelet, read-out: Experiment 1 10^-6 M inhibition (%)
Method: Experiment 1 (Inhibitory activities on platelet aggregation)
Platelet aggregation of platelet rich plasma (PRP) from rabbits was measured with the use of an NKK- hematracer (Niko Bioscience). That is, to PRP (200µ 1) was added a test drug or a solvent at 37°C while stirring at 1000 rpm, and an aggregation-inducing agent was added thereto 1 minute later, to measure the changes in transmittance caused by the platelet aggregation. Arachidonic acid (0.1 mM) was used as the aggregation-inducing agent.

Row | Compound | TXB2 (TXB2) [ng/mL] | IC50 [1] [µM] | inhibition at 1 µM [2] [%] | Experiment 1 10^-6 M inhibition (%) [2] [%]
1 | O=C(O)CCCC/C=C(\c1ccccc1)c1cccnc1 [CV-4151, reference compound] | 11.0 | – | – | –
2 | CCOC(=O)CCN1CC(CCn2ccnc2)c2ccccc21 (stereo not shown) [Example 1] | – | 93 | 40.3 | –
3 | O=C(O)CCN1CC(CCn2ccnc2)c2ccccc21 (stereo not shown) [Example 2, 3-[2-(1 H-Imidazol-1-yl)ethyl]-1-indolinepropionic acid] | – | – | 8.7 | –
4 | CCCCCCOc1ccc2c(c1)C(CCn1ccnc1)CN2CCC(=O)OCC (stereo not shown) [Example 8, Ethyl 5-hexyloxy-3-[2-(1 H-imidazol-1-yl)ethyl]-1-indolinepropionate] | – | 2.6 | 20.8 | –
5 | CCCCCCOc1ccc2c(c1)C(CCn1ccnc1)CN2CCC(=O)O (stereo not shown) [Example 9, 5-Hexyloxy-3-[2-(1H-imidazol-1-yl)ethyl]-1-indolinepropionic acid] | – | – | 28.3 | –
6 | CCOC(=O)CCN1CC(CCn2ccnc2)c2cc(OC)ccc21 (stereo not shown) [Example 10] | – | 18.7 | 54.5 | –
7 | COc1ccc2c(c1)C(CCn1ccnc1)CN2CCC(=O)O (stereo not shown) [Example 11] | – | 73 | 36 | –
8 | CCCc1ccc2c(c1)C(CCn1ccnc1)CN2CCC(=O)OCC (stereo not shown) [Example 12] | – | 4.8 | 19.7 | –
9 | CCCc1ccc2c(c1)C(CCn1ccnc1)CN2CCC(=O)O (stereo not shown) [Example 13] | – | 21.9 | 10.4 | –
10 | CCOC(=O)CCN1CC(CCn2ccnc2)c2cc(C(C)C)ccc21 (stereo not shown) [Example 14] | – | 6 | 14.5 | –
11 | CC(C)c1ccc2c(c1)C(CCn1ccnc1)CN2CCC(=O)O (stereo not shown) [Example 15] | – | 24.8 | 1.6 | –
12 | CCOC(=O)CCN1CC(CCn2ccnc2)c2cc(C3CCCCC3)ccc21 (stereo not shown) [Example 16] | – | – | 2.1 | –
13 | O=C(O)CCN1CC(CCn2ccnc2)c2cc(C3CCCCC3)ccc21 (stereo not shown) [Example 17] | – | 2.05 | 15.7 | –
14 | CCCOc1ccc2c(c1)C(CCn1ccnc1)CN2CCC(=O)OCC (stereo not shown) [Example 18] | – | – | 21.8 | –
15 | CCCOc1ccc2c(c1)C(CCn1ccnc1)CN2CCC(=O)O (stereo not shown) [Example 19] | – | 19.4 | 3.6 | –
16 | CCCCCOc1ccc2c(c1)C(CCn1ccnc1)CN2CCC(=O)OCC (stereo not shown) [Example 20] | 5.1 | 2.05 | 45.2 | –
17 | CCCCCOc1ccc2c(c1)C(CCn1ccnc1)CN2CCC(=O)O (stereo not shown) [Example 21] | 6.7 | 1.84 | 5.5 | –
18 | CCCCCCCOc1ccc2c(c1)C(CCn1ccnc1)CN2CCC(=O)OCC (stereo not shown) [Example 22] | – | – | 37 | –
19 | CCCCCCCOc1ccc2c(c1)C(CCn1ccnc1)CN2CCC(=O)O (stereo not shown) [Example 23] | – | 0.25 | 11.5 | –
20 | CCCCCCCCCOc1ccc2c(c1)C(CCn1ccnc1)CN2CCC(=O)OCC (stereo not shown) [Example 26] | – | – | 40.5 | –
21 | CCCCCCCCCOc1ccc2c(c1)C(CCn1ccnc1)CN2CCC(=O)O (stereo not shown) [Example 27] | 4.8 | 0.26 | 27 | –
22 | CCCCCCCCCCCCOc1ccc2c(c1)C(CCn1ccnc1)CN2CCC(=O)O (stereo not shown) [Example 29] | – | 0.24 | 12.1 | –
23 | C=CCOc1ccc2c(c1)C(CCn1ccnc1)CN2CCC(=O)OCC (stereo not shown) [Example 30] | – | – | 28.4 | –
24 | C=CCOc1ccc2c(c1)C(CCn1ccnc1)CN2CCC(=O)O (stereo not shown) [Example 31] | – | 20.3 | 0.2 | –
25 | O=C(O)/C=C/c1ccc(Cn2ccnc2)cc1 [OKY-046, reference compound] | – | – | 4 | –
26 | Ethyl 3-[2-(1 H-imidazol-1-yl)ethyl]-1-indolineacetate [Example 5] | – | 25 | – | 20.3

From patent EP0427860A1, “NEW IMIDAZOLE DERIVATIVES, PRODUCTION THEREOF, AND USES THEREOF AS MEDICINES” (Kyoto Pharmaceutical Industries, Ltd., priority 1989, dated 1990)
